# Laboratory results: publication PMC4754331, “Programming of metabolic effects in C57BL/6JxFVB mice by in utero and lactational exposure to perfluorooctanoic acid” (Archives of Toxicology, 2015)
# Read-outs that look alike come from different tables or passages of the source.
# Experiments:
# C57BL/6JxFVB hybrid mice = experiment: Offspring body weight and growth after perinatal exposure; assay type: in vivo; set-up: key to Time of effect: P: permanent effect on body weight throughout study; D: delayed (late onset) of effect; T: transient effect; E: effect observed during treatment; conditions: for Emax: Mus musculus
# Experimental: PFOA was obtained as sodium perfluoro-n-octanoate (PFOA-Na; CAS No. 335-95-5, purity >99 %) and kindly provided by Wellington Laboratories Inc., Ontario, Canada. PFOA-Na was dissolved in acetone and mixed with the diet (NIH-07, Research Diet Services, Wijk bij Duurstede, The Netherlands). Thereafter, acetone was allowed to evaporate, and this master mixture was serially diluted with a factor 3–3.3 by adding NIH-07, and afterward, the diet was pelleted. In this way, seven diet groups and a control NIH-07 (blank acetone was added) were obtained, aiming at concentrations of 0, 0.017, 0.056, 0.17, 0.56, 1.7, 5.6 and 17 mg/kg PFOA in feed, which corresponded to 0, 3, 10, 30, 100, 300, 1000 and 3000 µg/kg bw based on an average food consumption of 4.5 g per mouse (average body weight of 25 g) per day. PFOA concentrations in test diets were confirmed by isotope dilution liquid chromatography mass spectrometry after extraction with methanol (8402, JT Baker, Deventer the Netherlands) and a cleanup with carbon solid phase extraction (ENVI Carb, 57210-U, Supelco, Zwijndrecht, the Netherlands). Actual PFOA concentrations in the food were 15–30 % lower than the nominal values. The non-purified soy-based NIH-07 was chosen because it was originally designed to optimize gestation, lactation and growth of rodents, and avoiding natural phytoestrogens in the diet may have confounding effects (Ruhlen et al. [2008]). Estrogenic and anti-estrogenic activity for this diet was previously analyzed to be low and absent, respectively (van Esterik et al. [2014]).
# A high fat diet (D12451, Research Diet Services, Wijk bij Duurstede, The Netherlands), containing 45 kcal % fat (lard) compared with 15 kcal % fat in the NIH-07 diet, was given to all F1 mice during the final weeks of the study (21–28 weeks of age).
# After an acclimatization period of 1 week, female F0 mice were fed experimental diets explained above starting 2 weeks before mating and continued during mating (1 week), gestation (3 weeks) and lactation (3 weeks). Each dose group had six F0 females, which were mated three by three with two F0 males for each dose group. […] For every dose group, on average 9 mice per sex (range 6–10) were included for follow-up through juvenile and adult stages, selecting pups proportionally from available litters. F1 males were single-housed, and F1 females were housed in pairs from the same litter in standard Macrolon type I cages. Body weight was measured at postnatal day (PND) 4, 7, 14 and 21 and weekly from 5 weeks of age continuing until the end of the study. Food consumption could not be recorded reliably due to high spillage.
# Growth was calculated by dividing body weight of subsequent weeks by body weight at week 5, i.e., at the start of the F1 follow-up.
# rodents = tested on: rodents; set-up: method as in EFSA [2008]; conditions: basis of the TDI; ref EFSA [2008]; cited from earlier work
# [1] = tested on: mice (CD-1, NMRI, Balb/c, C57BL/6); set-up: key to Time of effect: P: permanent effect on body weight throughout study; D: delayed (late onset) of effect; T: transient effect; E: effect observed during treatment; conditions: cited from earlier work
# [2] = cited from earlier work
# [3] = ref EFSA [2012]; EFSA [2008]; cited from earlier work
# [4] = C57BL/6JxFVB, 3-10-30-100-300-1000-3000 µg/kg bw/d, diet, 2w pre-mating-PND21, this study
# [5] = F1 females, CES 5 %, high fat diet
# [6] = Balb/c and C57BL/6, 1000-5000-10,000 µg/kg bw/d, oral gavage PND21-49 (5d/w), ref Yang et al. ([2009])
# [7] = Balb/c, C57BL/6, 2500 (Balb), 7500 (BL6) µg/kg bw/d, oral gavage PND21-49 (5d/w), ref Zhao et al. ([2012])
# [8] = CD-1, 5000 µg/kg bw/d, oral gavage GD1-17, GD8-17, GD12-17, ref White et al. ([2007])
# [9] = CD-1, 10-100-1000 µg/kg bw/d, oral gavage GD10-17, ref Macon et al. ([2011])
# [10] = CD-1, 10-100-1000 µg/kg bw/d, oral gavage PND18-20, ref Dixon et al. ([2012])
# [11] = CD-1, 10–5000 µg/kg bw/d, oral gavage GD1-17, ref Hines et al. ([2009])
# [12] = CD-1, 300-1000-3000 µg/kg bw/d, oral gavage GD1-17, ref Macon et al. ([2011])
# [13] = CD-1, 1000, 3000, 5000, 10,000, 20,000, 40,000 µg/kg bw/d, oral gavage GD1-17, ref Lau et al. ([2006])
# [14] = CD-1, 1000, 5000, 0/1000 + 5 ng/mL via drinking water, GD1-17, ref White et al. ([2011b])
# [15] = CD-1, 1000–40,000 µg/kg bw/d, oral gavage GD1-17, ref Lau et al. ([2006])
# [16] = CD-1, 3000, 5000 µg/kg bw/d, oral gavage GD1-17, ref White et al. ([2009])
# [17] = CD-1, dose 3 [sic], 5 µg/kg bw/d, oral gavage GD1-17, ref Wolf et al. ([2007])
# [18] = NMRI, 580-8,700 µg/kg bw/d, oral gavage PND10, ref Johansson et al. ([2008])
compound,measurement,setting,value
"O=C(O)C(F)(F)C(F)(F)C(F)(F)C(F)(F)C(F)(F)C(F)(F)C(F)(F)F [PFOA, Perfluorooctanoic acid]",Endpoint bw (age) F,C57BL/6JxFVB hybrid mice; [4],↓ PND4–w27
same,Endpoint bw (age) M,C57BL/6JxFVB hybrid mice; [4],↓ PND4–w23
same,Time of effect,"C57BL/6JxFVB hybrid mice; C57BL/6JxFVB, this study, in males not observed during final 2 weeks (w24–25) under high fat diet",P^d
same,Body weight week 21: BMDL,"C57BL/6JxFVB hybrid mice; F1 females, CES 5 %",1239 µg/kg bw/d
same,Body weight week 21: BMDU,"C57BL/6JxFVB hybrid mice; F1 females, CES 5 %",3595 µg/kg bw/d
same,Body weight week 27: BMDL,C57BL/6JxFVB hybrid mice; [5],849 µg/kg bw/d
same,Body weight week 27: BMDU,C57BL/6JxFVB hybrid mice; [5],5645 µg/kg bw/d
same,Body weight week 21: BMDL,"C57BL/6JxFVB hybrid mice; F1 males, CES 5 %",1024 µg/kg bw/d
same,Body weight week 21: BMDU,"C57BL/6JxFVB hybrid mice; F1 males, CES 5 %",3457 µg/kg bw/d
same,Growth week 25/5: BMDL,"C57BL/6JxFVB hybrid mice; F1 males, CES 5 %",948 µg/kg bw/d
same,Growth week 25/5: BMDU,"C57BL/6JxFVB hybrid mice; F1 males, CES 5 %",2383 µg/kg bw/d
same,Emax,"C57BL/6JxFVB hybrid mice; F1 females, read-out: Body weight week 21: max effect size",-8%
same,Emax,"C57BL/6JxFVB hybrid mice; F1 females, read-out: Body weight week 27: max effect size",-9.1%
same,Emax,"C57BL/6JxFVB hybrid mice; F1 females, read-out: Growth week 27/5: max effect size",-8.6%
same,Emax,"C57BL/6JxFVB hybrid mice; F1 males, read-out: Body weight week 21: max effect size",-9.1%
same,Emax,"C57BL/6JxFVB hybrid mice; F1 males, read-out: Growth week 25/5: max effect size",11%
same,Body weight PND4: CED,"C57BL/6JxFVB hybrid mice; females, CES −0.05, Fig. 2c",0.0628 µg/kg body weight/day
same,Body weight PND4: CEDLbt,"C57BL/6JxFVB hybrid mice; females, CES −0.05, Fig. 2c",2.004e−08 µg/kg body weight/day
same,Body weight PND4: CEDUbt,"C57BL/6JxFVB hybrid mice; females, CES −0.05, Fig. 2c",42.23 µg/kg body weight/day
same,Body weight week 27: CED,"C57BL/6JxFVB hybrid mice; females, CES −0.05, Fig. 2d",1560 µg/kg body weight/day
same,Body weight week 27: CEDLbt,"C57BL/6JxFVB hybrid mice; females, CES −0.05, Fig. 2d",849.1 µg/kg body weight/day
same,Body weight week 27: CEDUbt,"C57BL/6JxFVB hybrid mice; females, CES −0.05, Fig. 2d",5645 µg/kg body weight/day
same,Body weight from PND4 until adulthood (week 21),"C57BL/6JxFVB hybrid mice; females, standard diet",dose-dependently decreased
same,Body weight at PND4,C57BL/6JxFVB hybrid mice; males,dose-dependent decrease
same,Body weight PND4: CEDLbt,"C57BL/6JxFVB hybrid mice; males, CES −0.05, Fig. 2a",1e−12 µg/kg body weight/day
same,Body weight PND4: CEDUbt,"C57BL/6JxFVB hybrid mice; males, CES −0.05, Fig. 2a",42.23 µg/kg body weight/day
same,Body weight PND4: CED,"C57BL/6JxFVB hybrid mice; males, CES −0.05, Fig. 2a, unit from legend",0.0039 µg/kg body weight/day
same,Body weight in weeks 22 and 23,"C57BL/6JxFVB hybrid mice; males, high fat diet, data not shown",dose-dependent decrease
same,BMDL10 for liver effects in rodents,rodents,300 µg/kg bw/d
same,Endpoint bw (age) F,[1]; [6],↓ PND45-46
same,Other relevant effects of PFOA,[1]; [6],PND49: delayed vaginal opening; ↑ abs/rel liver weight; inhibition mammary gland/uterine development
same,Time of effect,[1]; [6],E
same,Endpoint bw (age) F,[1]; [7],↓ PND42-49 (BL6)
same,Other relevant effects of PFOA,[1]; [7],delayed/absent vaginal opening; lack of estrous cycling; ↓ovarian steroid hormonal synthetic enzyme levels
same,Time of effect,[1]; [7],E
same,Other relevant effects of PFOA,"[1]; C57BL/6/Bkl, 300 µg/kg bw/d, diet GD1-PND0, ref Onishchenko et al. ([2011])",M + F: changes in exploratory behavior; M: ↑ activity
same,Other relevant effects of PFOA,"[1]; C57BL/6, 5000 µg/kg bw/d, oral gavage PND21-49 (5d/w), ref Zhao et al. ([2010])",↑ serum progesterone; ↑ mammary gland response to estrogen and/or progesterone
same,Time of effect,"[1]; CD-1, 5000 µg/kg bw/d, oral gavage GD1-17, GD8-17, GD12-17, no follow-up of animals, ref White et al. ([2007])",P^c
same,Endpoint bw (age) F,[1]; [8],↓ PND1-20
same,Endpoint bw (age) M,[1]; [8],↓ PND1-20
same,Other relevant effects of PFOA,[1]; [8],altered mammary gland development in dams + female pups
same,Endpoint bw (age) F,[1]; [9],– PND1-21
same,Endpoint bw (age) M,[1]; [9],– PND1-21
same,Other relevant effects of PFOA,[1]; [9],M + F: hepatomegaly; F: mammary gland developmental abnormalities
same,Endpoint bw (age) F,[1]; [10],– PND21
same,Other relevant effects of PFOA,[1]; [10],PND21: ↑ abs/rel uterine weight (lowest dose)
same,Endpoint bw (age) F,"[1]; CD-1, 10, 100, 300, 1000, 3000, 5000 µg/kg bw/d, oral gavage GD1-17, ref Hines et al. ([2009])","↓ PND1,21 (high doses); ↑ 20-40w (low doses)"
same,Other relevant effects of PFOA,[1]; [11],"21–33w: ↑ insulin; ↑ leptin (low doses); 18 m, weights abs/rel: ↓ abdominal white fat (high doses); ↑ interscapular fat (high doses); – liver"
same,Time of effect,[1]; [11],D T
same,Endpoint bw (age) F,[1]; [12],– PND7-85
same,Endpoint bw (age) M,[1]; [12],– PND7-85
same,Other relevant effects of PFOA,[1]; [12],M + F: delayed mammary gland development
same,Endpoint bw (age) F,[1]; [13],↓ PND1-25; – 6.5w-60w
same,Endpoint bw (age) M,[1]; [13],↓ PND1-25; – 6.5w-60w
same,Other relevant effects of PFOA,[1]; [14],"delay in mammary gland development and/or lactational differentiation (P0, F1, F2)"
same,Time of effect,[1]; [14],T
same,Endpoint bw (age) F,"[1]; CD-1, 1000, 5000, 0/1000 + 5 ng/mL via drinking water, oral gavage GD1-17, GD1-end of study (5 ng/mL groups), ref White et al. ([2011b])",↓ PND42 (F1); ↑ PND14-22 (F2)
same,Other relevant effects of PFOA,[1]; [15],M: earlier preputial separation
same,Time of effect,[1]; [15],T
same,Endpoint bw (age) F,[1]; [16],↓ PND21-85
same,Other relevant effects of PFOA,[1]; [16],weaning age: abnormal (delay) mammary gland development; ↑ rel liver weight
same,Time of effect,[1]; [16],T
same,Endpoint bw (age) M,"[1]; CD-1, 3000, 5000 µg/kg bw/d, oral gavage GD1-17, ref Wolf et al. ([2007])",↓ PND1-22; ↑ PND85 - 35w (dose 3000)
same,Endpoint bw (age) F,[1]; [17],↓ PND1-22
same,Other relevant effects of PFOA,[1]; [17],"M + F, PND22: ↑ abs/rel liver weight"
same,Time of effect,[1]; [17],T; D (dose 3000)
same,Endpoint bw (age) M,[1]; [18],– PND10 + 28
same,Other relevant effects of PFOA,[1]; [18],8/16w: neurotoxicity
same,Most sensitive developmental BMDL,[1]; ref Lau et al. [2006],616 µg/kg bw/d
same,Level in adult human serum samples,"[2]; detected globally, ref Calafat et al. [2007]",3.6 to 4.3 ng/mL
same,Level in serum of pregnant mothers,[2]; ref Grandjean et al. [2012],2.6 to 4.0 ng/mL
same,Level in cord plasma,[2]; ref de Cock et al. [2014],0.3 to 2.7 ng/mL
same,Tolerable daily intake (TDI),[3],1.5 µg/kg bw/d
